Source: patent US20170210741A1, “Benzimidazole Compounds, Use As Inhibitors of WNT Signaling Pathway in Cancers, and Methods for Preparation Thereof” (Southern Research Institute, priority 2016, published 2017)
Read-outs that look alike come from different tables or passages of the source.

How the values were obtained:
Type in all cases: cell-based
HCT116 = assay: In vitro cell viability assay (Cell Titer Glo), colorectal cancer HCT116; conditions: Homo sapiens, HCT-116, 72 h
Procedure: (§1) Breast cancer SUM159 was obtained from Asterand and grown according to supplier's recommendation. All other cell lines were obtained from ATCC and cultured in standard cell culture conditions with complete cell culture medium containing 10% FBS.
(§2) Cancer cells were seeded into optically clear tissue culture-treated black 96-well plates (for adherent cells) or low-attachment 96-well plates (for cancer stem cells) at 2,000-5000 cells/50 μL of media per well. The cells were treated with Wnt inhibitors at 0.1 to 10 μM for 72 h. Cell viability was measured by the Cell Titer Glo Assay from Promega.
(§3) Table 4 below illustrates the effects of the disclosed compounds on cell viability of colorectal cancer cell lines.

HT-29 = assay: In vitro cell viability assay (Cell Titer Glo), colorectal cancer HT-29; conditions: Homo sapiens, 72 h
Procedure: as §1, §2, §3

S2VP10 = assay: In vitro cell viability assay (Cell Titer Glo), pancreatic cancer S2VP10; conditions: 72 h
Procedure: as §1, §2

Wnt signaling = Wnt signaling reporter assay (Super8XTOPFlash luciferase) in LRP6-expressing HEK293 cells; conditions: 24 h treatment, luciferase normalized to β-galactosidase; for IC50: Homo sapiens, read-out: IC50 (effects on Wnt signaling)
Procedure: HEK293 cells were plated into 24-well plates. After overnight culture, the cells were transiently transfected with 0.06 μg of the Super8XTOPFlash luciferase construct, 0.06 μg of β-galactosidase-expressing vector, and 0.06 μg of pCS-Myc-hLRP6 or control vector. After 24 h incubation, cells were treated with each individual compound in triplicate for 24 h. Cells were then lysed, and the luciferase and β-galactosidase activities were determined by the luciferase assay system (Promega) and β-galactosidase assay system (Promega), respectively. The luciferase activity was normalized to the β-galactosidase activity.
Table 2 below illustrates the effects of the disclosed compounds on Wnt signaling in LRP6-expressing HEK293 cells.

Suit-2 = assay: In vitro cell viability assay (Cell Titer Glo), pancreatic cancer Suit-2; conditions: 72 h
Procedure: as §1, §2

[1] = HCT116, CSC conditions, read-out: Cell viability (IC50) HCT116 CSC
[2] = HCT116, adherent, read-out: Cell viability (IC50) HCT116 Adherent
[3] = HT-29, CSC conditions, read-out: Cell viability (IC50) HT-29 CSC
[4] = HT-29, adherent, read-out: Cell viability (IC50) HT-29 Adherent
[5] = S2VP10, CSC enriching serum free medium, non-adherent plates, read-out: Cell viability (IC50) S2VP10 CSC
[6] = S2VP10, adherent, complete medium 10% FBS, read-out: Cell viability (IC50) S2VP10 Adherent
[7] = Suit-2, CSC enriching serum free medium, non-adherent plates, read-out: Cell viability (IC50) Suit-2 CSC
[8] = Suit-2, adherent, complete medium 10% FBS, read-out: Cell viability (IC50) Suit-2 Adherent

| SMILES | IC50 (HCT116; [1]) | IC50 (HCT116; [2]) | IC50 (HT-29; [3]) | IC50 (HT-29; [4]) | IC50 (S2VP10; [5]) | IC50 (S2VP10; [6]) | IC50 (Suit-2; [7]) | IC50 (Suit-2; [8]) | IC50 (Wnt signaling) | IC50 (effects on Wnt signaling) (Wnt signaling) |
| --- | --- | --- | --- | --- | --- | --- | --- | --- | --- | --- |
| Oc1ccc(Cl)cc1-c1nc2cc(Cl)c(Cl)nc2[nH]1 [Compound 9, 4-Chloro-2-(5,6-dichloro-3H-imidazo[4,5-b]pyridin-2-yl)phenol] | 0.51 µM | 2.09 µM | 8.95 µM | 9.76 µM | 0.87 µM | 2.24 µM | > 10 µM | > 10 µM | 1.85 µM |  |
| Clc1cc2nc(-c3ccc(N4CCCCC4)cc3)[nH]c2cc1Cl [Compound 11, 5,6-dichloro-2-(4-(piperidin-1-yl)phenyl)-1H-benzo[d]imidazole] | 0.57 µM | 1.01 µM | 0.04 µM | 0.67 µM | > 10 µM | 1.68 µM | > 10 µM | 0.97 µM | 0.00095 µM |  |
| Clc1cc2nc(-c3ccc(N4CCCC4)cc3)[nH]c2cc1Cl [Compound 12, 5,6-dichloro-2-(4-(pyrrolidin-1-yl)phenyl)-1H-benzo[d]imidazole] | 2.68 µM | 1.18 µM | 0.51 µM | 0.84 µM | > 10 µM | 2.58 µM | > 10 µM | 2.1 µM | 0.00093 µM |  |
| Clc1cc2nc(-c3ccc(N4CCNCC4)cc3)[nH]c2cc1Cl [Compound 13, 5,6-dichloro-2-(4-(piperazin-1-yl)phenyl)-1H-benzo[d]imidazole] |  |  |  |  | > 10 µM | > 10 µM | > 10 µM | > 10 µM |  |  |
| Clc1cc2nc(-c3ccc(-n4ccnc4)cc3)[nH]c2cc1Cl [Compound 15, 2-(4-(1H-imidazol-1-yl)phenyl)-5,6-dichloro-1H-benzo[d]imidazole] |  |  |  |  | 1.34 µM | > 10 µM | 1.81 µM | > 10 µM |  |  |
| Cc1nccn1-c1ccc(-c2nc3cc(Cl)c(Cl)cc3[nH]2)cc1 [Compound 16, 5,6-dichloro-2-(4-(2-methyl-1H-imidazol-1-yl)phenyl)-1H-benzo[d]imidazole] |  |  |  |  | > 10 µM | > 10 µM | > 10 µM | > 10 µM |  |  |
| Cn1c(-c2ccc(OC(F)(F)F)cc2)nc2cc(Cl)c(Cl)cc21 [Compound 23, 5,6-dichloro-1-methyl-2-(4-(trifluoromethoxy)phenyl)-1H-benzo[d]imidazole] |  |  |  |  |  |  |  |  |  | Inactive |
| Fc1cc2nc(-c3ccc(OC(F)(F)F)cc3)[nH]c2cc1Cl [Compound 24, 6-chloro-5-fluoro-2-(4-(trifluoromethoxy)phenyl)-1H-benzo[d]imidazole] |  |  |  |  |  |  |  |  |  | Inactive |
| Fc1cc2[nH]c(-c3ccc(OC(F)(F)F)cc3)nc2cc1C(F)(F)F [Compound 25, 6-fluoro-2-(4-(trifluoromethoxy)phenyl)-5-(trifluoromethyl)-1H-benzo[d]imidazole] |  |  |  |  | 2.77 µM | 7.2 µM | 2.05 µM | 5.63 µM |  | Inactive |
| FC(F)(F)Oc1ccc(-c2nc3cc(C(F)(F)F)c(Cl)cc3[nH]2)cc1 [Compound 26, 6-chloro-2-(4-(trifluoromethoxy)phenyl)-5-(trifluoromethyl)-1H-benzo[d]imidazole] |  |  |  |  | 0.95 µM | 6.92 µM | 0.86 µM | 6.44 µM |  | Inactive |
| CN1CCN(c2ccc(-c3nc4cc(Cl)c(Cl)cc4[nH]3)cc2F)CC1 [Compound 27, 5,6-dichloro-2-(3-fluoro-4-(4-methylpiperazin-1-yl)phenyl)-1H-benzo[d]imidazole] | 1.76 µM | 0.83 µM |  | 0.14 µM | 2.91 µM | 8.31 µM | 1.99 µM | 8.92 µM | 0.00467 µM |  |
| Clc1cc2nc(-c3ccc(N4CCCCC4)cc3)[nH]c2nc1Cl [Compound 33, 5,6-dichloro-2-(4-(piperidin-1-yl)phenyl)-3H-imidazo[4,5-b]pyridine] |  |  |  |  | > 10 µM | > 10 µM | > 10 µM | > 10 µM |  | Inactive |
| Clc1cc2nc(-c3ccc(N4CCCC4)cc3)[nH]c2nc1Cl [Compound 34, 5,6-dichloro-2-(4-(pyrrolidin-1-yl)phenyl)-3H-imidazo[4,5-b]pyridine] |  |  |  |  | > 10 µM | > 10 µM | > 10 µM | > 10 µM |  | Inactive |

Now from value to compound, other results behind:

| IC50 (HCT116; [1]) | IC50 (HCT116; [2]) | IC50 (HT-29; [3]) | IC50 (HT-29; [4]) | IC50 (S2VP10; [5]) | IC50 (S2VP10; [6]) | IC50 (Suit-2; [7]) | IC50 (Suit-2; [8]) | SMILES | IC50 (Wnt signaling) | IC50 (effects on Wnt signaling) (Wnt signaling) |
| --- | --- | --- | --- | --- | --- | --- | --- | --- | --- | --- |
| 20.9 µM | 11.2 µM | 0.13 µM | 3.29 µM | 0.91 µM | 4.76 µM | 1.34 µM | 5.26 µM | CN1CCN(c2ccc(-c3nc4cc(Cl)c(Cl)cc4[nH]3)cc2)CC1 [Compound 10, 5,6-Dichloro-2-(4-(4-methylpipcrazin-1-yl)phenyl)-1H-benzo[d]imidazole] | 0.013 µM |  |
|  |  |  |  | 1.33 µM | > 10 µM | 1.23 µM | > 10 µM | CCN1CCN(c2ccc(-c3nc4cc(Cl)c(Cl)cc4[nH]3)cc2)CC1 [Compound 14, 5,6-dichloro-2-(4-(4-ethylpiperazin-1-yl)phenyl)-1H-benzo[d]imidazole] |  |  |
|  |  |  |  | 1.52 µM | 7.16 µM | 0.76 µM | > 10 µM | CN1CCN(c2ccc(-c3nc4ccc(C(F)(F)F)cc4[nH]3)cc2)CC1 [Compound 18, 2-(4-(4-methylpiperazin-1-yl)phenyl)-6-(trifluoromethyl)-1H-benzo[d]imidazole] |  | Inactive |
|  |  |  |  | 0.35 µM | 0.79 µM | 0.33 µM | 1.34 µM | CN1CCN(c2ccc(-c3nc4ccc(F)cc4[nH]3)cc2)CC1 [Compound 19, 6-fluoro-2-(4-(4-methylpiperazin-1-yl)phenyl)-1H-benzo[d]imidazole] |  | Inactive |
|  |  |  |  | 0.18 µM | 0.14 µM | 0.21 µM | 0.29 µM | CN1CCN(c2ccc(-c3nc4ccncc4[nH]3)cc2)CC1 [Compound 20, 2-(4-(4-methylpiperazin-1-yl)phenyl)-3H-imidazo[4,5-c]pyridine] |  | Inactive |
| 0.08 µM | 0.11 µM | 0.05 µM | 0.06 µM | 0.08 µM | 0.11 µM | 0.15 µM | 0.16 µM | c1cc2[nH]c(-c3ccc(N4CCCC4)cc3)nc2cn1 [Compound 28, 2-(4-(pyrrolidin-1-yl)phenyl)-1H-imidazo[4,5-c]pyridine] | 10.5 µM |  |
|  |  |  |  | 1.08 µM | > 10 µM | 1.42 µM | 7.56 µM | FC(F)(F)c1ccc2[nH]c(-c3ccc(N4CCCCC4)cc3)nc2c1 [Compound 29, 2-(4-(piperidin-1-yl)phenyl)-5-(trifluoromethyl)-1H-benzo[d]imidazole] |  | Inactive |
|  |  |  |  |  | 0.06 µM | 0.07 µM | 0.08 µM | c1cc2nc(-c3ccc(N4CCCCC4)cc3)[nH]c2cn1 [Compound 30, 2-(4-(piperidin-1-yl)phenyl)-3H-imidazo[4,5-c]pyridine] |  | Inactive |
|  |  |  |  | 0.6 µM | 5.2 µM | 1.1 µM | 3.87 µM | FC(F)(F)c1cc2nc(-c3ccc(N4CCCC4)cc3)[nH]c2cc1Cl [Compound 32, 6-chloro-2-(4-(pyrrolidin-1-yl)phenyl)-5-(trifluoromethyl)-1H-benzo[d]imidazole] |  | Inactive |
|  |  |  |  | 0.15 µM | > 10 µM | 0.24 µM | 9.06 µM | FC(F)(F)c1cc(Cl)c2[nH]c(-c3ccc(N4CCCC4)cc3)nc2c1 [Compound 35, 7-chloro-2-(4-(pyrrolidin-1-yl)phenyl)-5-(trifluoromethyl)-1H-benzo[d]imidazole] |  | Inactive |
|  |  |  |  | 2.95 µM | > 10 µM | 2.53 µM | 8.66 µM | FC(F)(F)c1cc(Cl)c2[nH]c(-c3ccc(N4CCCCC4)cc3)nc2c1 [Compound 36, 7-chloro-2-(4-(piperidin-1-yl)phenyl)-5-(trifluoromethyl)-1H-benzo[d]imidazole] |  | Inactive |
|  |  |  |  |  | 9.25 µM | 0.55 µM | 5.33 µM | FC(F)(F)c1cc2nc(-c3ccc(N4CCCCC4)cc3)[nH]c2cc1Cl [Compound 37, 6-chloro-2-(4-(piperidin-1-yl)phenyl)-5-(trifluoromethyl)-1H-benzo[d]imidazole] |  | Inactive |
